The subject of experiment [1] is C57BL/6J male mice. Briefly: Novel object recognition (NOR). The format is in vivo, mouse. The conditions noted are these: for memory performance in testing phase of NOR: 3 month-old WT mice, single acute hippocampal stereotactic injection 12 hours before training phase.
Experiment [2] has as its system C57BL/6J male mice. The experiment in a line: Contextual fear conditioning (CFC). The conditions noted are these: for memory performance in testing phase of CFC: 3 month-old WT mice, single acute hippocampal stereotactic injection 12 hours before training phase. In kind it is in vivo, mouse.
The test system of experiment [3] is hippocampal autophagy (LC3-II). To be noted: 16 month-old mice, 12 hours after hippocampal stereotactic injection, 1 μg/hemisphere, compared with 3 month-old mice.
Experiment [4] has as its system C57BL/6J male mice. To be noted: 16 month-old mice, local hippocampal stereotactic injection 1 μg/hemisphere, versus 3 month-old mice.
[5] abbreviates: 16 month-old mice, 14 days of daily intraperitoneal injections, 450 μg.
Where [6] appears, read: 16 month-old mice, local hippocampal stereotactic injection 1 μg/hemisphere, versus 3 month-old mice.

The text below walks through data of patent US20210379146A1, “METHOD TO RESTORE OR IMPROVE COGNITIVE FUNCTIONS” (INSERM (INSTITUT NATIONAL DE LA SANTÉ ET DE LA RECHERCHE …, priority 2018, published 2021).

Regarding `Fc1ccc(CNc2ncnc3ccc(F)cc23)cc1` [Spautin-1, reference compound], the “memory performance in testing phase of NOR” value (shortened to “memory performance … of NOR”) in experiment [1] is reported as “significant decrease in memory performance”. Also, in experiment [2], the “memory performance in testing phase of CFC” value (shortened to “memory performance … of CFC”) is listed as “significant decrease in memory performance”.
For the compound `CCN(CC)CCCC(C)Nc1ccnc2cc(Cl)ccc12` (centres unmarked) [chloroquine, Chloroquine, reference compound], in experiment [1], the “memory performance … of NOR” value is recorded as “significant decrease in memory performance”. Besides, in experiment [2], the “memory performance … of CFC” value is “significant decrease in memory performance”.
With `CC(=O)N[C@@H](CC(C)C)C(=O)N[C@@H](CC(C)C)C(=O)N[C@H](C=O)CCCNC(=N)N` [leupeptin, Leupeptin, reference compound], in experiment [1], the “memory performance … of NOR” value is recorded as “significant decrease in memory performance”. The “memory performance … of CFC” value in experiment [2] is listed as “significant decrease in memory performance”.
Consider “YGRKKRRQRRRGGTNVFNATFEIWHDGEFGT [TAT-Beclin 1]”, for which the “memory performance … of NOR” value in experiment [1] is on record as “enhanced learning/memory capacities”. In addition, the “age-related memory decline, NOR” value in experiment [1] (setting [5]) is listed as “counteract normal age-related memory decline”. Further, the “age-related memory deficits, NOR” value in experiment [1] (setting [6]) is given as “rescue age-related memory deficits”. Besides, in experiment [2], the “memory performance … of CFC” value was “enhanced learning/memory capacities”. Besides, the “age-related memory decline, CFC” value in experiment [2] (setting [5]) is “counteract normal age-related memory decline”. Besides, the “age-related memory deficits, CFC” value in experiment [2] (setting [6]) is “rescue age-related memory deficits”. Besides, in experiment [3], the “LC3-II levels (Western blot)” value is given as “restored LC3-II levels in old (16 months) to the level of young (3 months) mice”. Besides, the “age-related memory deficits, OLM” value in experiment [4] is on record as “rescue age-related memory deficits”.
